# Test results published in patent publication US11000524B2, “Tyrosine kinase inhibition as a treatment for epilepsy” (Iowa State University Research Foundation, Inc., priority 2016, dated 2021).
# Columns and labels:
# [1] = system: kainate-induced SE in C57BL/6J mice; test: Saracatinib pretreatment 4 h before kainate-induced status epilepticus (behavioral seizure scoring, modified Racine scale); format: in vivo; settings: for mortality during SE / latency to the onset of first CS: saracatinib 25 mg/kg oral 4 h prior to SHD kainate 25 mg/kg i.p.; for mortality during SE: about 20% in vehicle group
# Description: We tested Fyn knockout mice (fyn^−/−), bred on C57BL/6J hybrid background mouse (fyn^+/+), and in wildtype C57BL/6J mice treated with the fyn kinase inhibitor, Saracatinib ([…], 25 mg/kg, oral, single dose) 4 h prior to the induction of SE with KA (5 mg/kg, i.p. at 30 min intervals or as a single high dose of 25 mg/kg). Two hours after the established SE, the behavioral SE was terminated with diazepam (10 mg/kg, i.p.). The animals were euthanized with pentobarbitone (100 mg/kg, i.p.) at 4 h, 24 h and 7d (for IHC & WB) and 4 weeks (video-EEG group) post-SE. The brain, serum, and cerebrospinal fluid (CSF) were collected for various analyses. […] We examined the time-dependent activation of fyn in microglial cells and initiation of neuro-inflammatory and neurodegenerative mechanisms in the hippocampus at 4 h, 24 h and 7 day time points post-SE. We also performed electroencephalographic (EEG) analysis to determine the spike rate and SRS frequency.
# Thirty C57BL/6J mice were used for the saracatinib experiment. In this experiment, 15 mice were treated with saracatinib (25 mg/kg, oral gavage as a single dose) at 4 h prior to a single high dose (SHD) of kainate (25 mg/kg, i. p), while the remaining 15 mice were given the vehicle [0.5% hydroxypropyl methylcellulose in 0.1% tween 80] 4 h prior to kainate.
# All animals administered with kainate were subjected to video recording. The seizures were staged and the SE was scored by direct observation of animals during the 2 h SE and exact duration of each stage of seizure was calculated. The video recordings were used for secondary analysis and for independent verification of seizures by two different personnel who were not involved in direct scoring during the experiments. The personnel who did the behavioral analysis were blind to the experimental groups. The behavioral seizures were scored based on modified Racine scale from stage 1 to 5 as described previously (Beamer et al., 2012; Puttachary et al., 2015b; Racine, 1972; Tse et al., 2014). Briefly, the staging was as follows: stage 1, absence-like immobility; stage-2, hunching with facial or manual automatisms evident from brisk movement of vibrissae and repeated grooming of the face; stage 3, rearing with forelimb clonus and facial or manual automatisms; stage 4, repeated rearing with continuous forelimb clonus and falling; and stage-5, generalized tonic clonic convulsions with lateral recumbence or jumping and/or wild running followed by generalized convulsions. Stage 1 and stage 2 were categorized as non-convulsive seizures (NCS) and stage ≥3 as convulsive seizures (CS) (Beamer et al., 2012; Puttachary et al., 2015b; Tse et al., 2014). The latency to the onset of CS and the duration of seizures were analyzed for each animal within a group as described previously (Puttachary et al., 2015b; Tse et al., 2014). The duration of CS is the total time spent by an animal in stage ≥3 during the 2 h of established SE until the diazepam was administered. Since a very few animals reached stage 5 in the saracatinib pretreated group and in the fyn^−/− mice, we considered stage ≥3 as the starting point for 2 h established SE. The data were analyzed and the severity of seizures, duration of CS, latency to CS onset, and mortality rate were compared between the groups.
# In all kainate-treated animals, the behavior seizures were terminated with diazepam (10 mg/kg, i.p.) at 2 h after the first onset of convulsive seizure. The 2 h duration between the onset of convulsive seizure and the diazepam treatment was considered as 2 h established SE. During this period, all wildtype control mice had continuous convulsive seizures for >30 min. All kainate-treated animals received 1 mL of Ringer's lactate solution (s.c.) twice a day for three days to enable them to recover from dehydration and the lost bodyweight due to SE.
# [2] = LC-MS of saracatinib in hippocampal tissue (blood brain barrier crossing); format: in vivo, C57BL/6J mice
# Description: For the LC-MS the optimum dose of saracatinib for our experiment was based on the published literature (Green et al., 2009; Hannon et al., 2010; Liu et al., 2012; Yang et al., 2010). […] The mice hippocampal tissues were homogenized in ˜0.2 mL 1:1 methanol:water using bullet blender. An additional 125 μL HPLC grade water was added to the homogenized samples. This was followed by three similar successive extractions with 375 μL 3:1 acetonitrile:water. The homogenate was sonicated for 10 min in a sonication water bath. The sample was pelleted by centrifugation at 13,000 g for 7 min and the supernatant was collected after each extraction and the samples were pooled. […]
# The LC-MS analysis for saracatinib was conducted using an Agilent Technologies 1290 Infinity Binary Pump UHPLC system coupled to an Agilent Technologies 6540 UHD Accurate-Mass Q-TOF mass spectrometer in high resolution mode ([…]) and scanning m/z 100-1700. […] Saracatinib detection is represented by extracted ion chromatogram (EIC) using a 10 ppm extraction window and was analyzed (FIG. 1E) using Agilent Mass Hunter Qualitative Analysis B.07.00 software. The X-axis on the EIC represents retention time and the Y-axis represents the abundance of ions detected. Saracatinib concentrations were observed as the area of the EIC peaks and was calculated based on the linear curve of the observed peak areas of standards. […]
# rat kainate model of TLE = test: Saracatinib post-treatment in the rat kainate model of TLE, 28 days continuous video-EEG; format: in vivo, Sprague Dawley rats; settings: for rats that did not develop epilepsy (of seven treated): 25 mg/kg oral from 2 h post-diazepam, twice daily 3 days then daily 4 days
# Description: Rats were used in the following example. The rats were treated as per the materials and methods of Examples 2-10 except for the following. Fourteen rats were used and implanted with telemetry device 10 days prior to the induction of SE, with RLD of kainate, as described previously (Puttachary et al., 2016b). The telemetry device used was CTA-F40 PhysioTel™ telemetry device (Data Science International, Minneapolis, USA) for video-EEG recording.
# Disabling the Fyn kinase function, either by pretreatment with saracatinib or fyn KO, prior to SE induction impacts the initial severity of SE and thus compromises the epileptogenic events. Therefore, we tested the effect of Fyn kinase inhibition with the saracatinib on epileptogenesis after the induction of SE in the rat kainate model of TLE. To mimic human TLE from translational view point, the rat kainate model is more suitable in terms of progressive nature of the disease since the frequency of spontaneous CS consistently increases over time in rats in contrast to the mouse kainate model (Puttachary et al., 2015b and 2016b). Therefore, we tested the saracatinib in the rat kainate model after terminating the behavioral SE with diazepam. The saracatinib (25 mg/kg, oral) was administered at 2 h post-diazepam and repeated twice daily for first three days followed by a single dose daily for the next four days during the first week of post-SE period. The treatment regimen was chosen based on increase in Fyn and PKCδ levels during the first week of post-SE in the mouse model.
# [3] = system: rat kainate model of epilepsy; test: Saracatinib post-treatment in the rat kainate model of epilepsy, 4 months video-EEG study; format: in vivo, rats; settings: four months monitoring
# Description: Fifteen rats (n=8 for control and 7 for SAR) were studied over the course of four months. Treatments and methods used in Example 12 were followed for this Example except for the extended time and the SAR/vehicle was administered 2 h after stopping the seizures (SE) with diazepam. The SAR was given at 25 mg/kg, oral twice daily for three days followed by daily for next four days. The drug was NOT administered after 7-day time point.
# [4] = system: hippocampal in vitro model; settings: Salter and Kalia, 2004, Sanna et al., 2000; cited from earlier work
# [5] = saracatinib 25 mg/kg oral single dose 4 h prior to kainate, vs vehicle, 2 h established SE
smiles,measurement,setting,value
"CN1CCN(CCOc2cc(OC3CCOCC3)c3c(Nc4c(Cl)ccc5c4OCO5)ncnc3c2)CC1 [saracatinib, N-(5-chloro-1,3-benzodioxol-4-yl)-7-[2-(4-methylpiperazin-1-yl)ethoxy]-5-(oxan-4-yloxy)quinazolin-4-amine]",mice that reached stage 5 seizure,"[1]; SHD kainate 25 mg/kg, 67% in vehicle group",7%
same,mortality during SE,[1],no mortality
same,mortality during SE,[1]; listed as SAR,reducing seizure severity and morality rate
same,latency to the onset of first CS,[1]; vs vehicle,increased latency
same,latency to the onset of first CS,"[1]; vs vehicle, listed as SAR",increasing the latency of seizure onset
same,duration of convulsive seizures (CS),[1]; [5],significant reduction
same,seizure severity,[1]; [5],significant reduction
same,seizure severity,"[1]; saracatinib 25 mg/kg oral single dose 4 h prior to kainate, vs vehicle, 2 h established SE, listed as SAR",reducing seizure severity
same,crossing of the blood brain barrier (BBB),[2]; LC-MS of hippocampus after 25 mg/kg oral,crossed the BBB
same,"persistence in hippocampus, 8 h compared to 28 h","[2]; LC-MS, FIG. 1F",persisted in the hippocampus at higher levels at 8 h post-SE when compared to 28 h post-administration
same,rats that did not develop epilepsy (of seven treated),rat kainate model of TLE; 28 d post-SE,four out of seven
same,rats that did not develop epilepsy (of seven treated),"rat kainate model of TLE; 28 d post-SE, listed as SAR",four
same,epileptiform spike counts / spiking frequency vs vehicle,"rat kainate model of TLE; 28 d post-SE, video-EEG",significantly reduced
same,number of spontaneous CS vs vehicle,"rat kainate model of TLE; 28 d post-SE, video-EEG",significantly reduced
same,number of spontaneous CS vs vehicle,"rat kainate model of TLE; 28 d post-SE, video-EEG, listed as SAR",significant reduction
same,initial SE severity vs vehicle group,rat kainate model of TLE; before treatment (post-SE dosing),no significant difference
same,rats not responding to treatment,rat kainate model of TLE; of seven treated rats,one rat did not respond
same,number of spontaneous CS in a month (two rats),"rat kainate model of TLE; two of seven treated rats, >24 episodes in vehicle group",< 10
same,rats in which development of epilepsy was completely prevented (of seven),[3]; 25 mg/kg oral twice daily 3 days then daily 4 days,four out of seven
same,animals not responding,[3],one animal did not respond
same,seizures in the other animals,[3],significantly reduced seizures
CC(C)(C)n1nc(-c2ccc(Cl)cc2)c2c(N)ncnc21 [PP2],frequency of epileptiform discharges,[4],reduces frequency of epileptiform discharges
